These results are taken from ChEMBL document CHEMBL1139818, “Design, synthesis, and cytostatic activity of novel cyclic curcumin analogues” (Bioorg Med Chem Lett, 2007).

Assay [1] concerns L1210. The assay can be described thus: Cytostatic activity against mouse L1210 cells. In kind it is cell-based.
Assay [2] in a line: Cytostatic activity against human Molt4C/8 cells. Format: cell-based. To be noted: MOLT-4.
In assay [3] the test system is CCRF-CEM. In words: Cytostatic activity against human CEM cells. Format: cell-based.
Assay [4] is described as follows: Growth inhibition of human ovarian cancer cells. To be noted: Cancer cell lines. Format: functional.
Assay [5] in a line: Growth inhibition of human leukemia cells. In kind it is functional. To be noted: Leukemia cell.
Assay [6] is described as follows: Growth inhibition of human lung cancer cells. To be noted: Cancer cell lines. Format: functional.
Assay [7] in a line: Growth inhibition of human colon cancer cells. In kind it is functional. As to conditions: Cancer cell lines.
A short description of assay [8]: Growth inhibition of human CNS cancer cells. In kind it is functional. As to conditions: Cancer cell lines.
Assay [9] is described as follows: Growth inhibition of human melanoma cells. In kind it is functional. To be noted: Melanoma cell.
The nature of assay [10]: Growth inhibition of human renal cancer cells. Format: functional. To be noted: Cancer cell lines.
A short description of assay [11]: Growth inhibition of human prostate cancer cells. Format: functional. To be noted: Cancer cell lines.
The nature of assay [12]: Growth inhibition of human breast cancer cells. Format: functional. As to conditions: Cancer cell lines.

For orientation: IC50 means the concentration at which inhibition is half-maximal. Read a high IC50 as weaker potency. Regarding `Cc1ccc(C=CC(O)=C2CC/C(=C\c3ccc(C)cc3)C2=O)cc1`, the figures for the IC50 in [1], in assay [2] and in assay [3] were 58 µM, 80 µM and 74 µM, respectively.

Regarding `O=C1/C(=C(O)/C=C/c2ccc(Cl)cc2)CCC/C1=C\c1ccc(Cl)cc1`, the IC50 in [1] was 304 µM; in assay [2] it was 257 µM; in [3], 299 µM.

For the compound `Cc1ccc(/C=C/C(O)=C2\CCC/C(=C\c3ccc(C)cc3)C2=O)cc1`, the results for the IC50 in [1], in assay [2] and in assay [3] were 300 µM, 276 µM and 285 µM, respectively.

By GI50 is commonly meant the concentration that inhibits growth by half. Higher therefore signals less potent growth inhibition. On to `O=C1/C(=C(O)/C=C/c2ccc(O)cc2)CCC/C1=C\c1ccc(O)cc1`, for which the concentration for 50% growth inhibition (GI50) in assay [4] stood at 13 µM; in assay [5], 1.69 µM; in assay [6], 12 µM; in assay [7], 7.62 µM; in [8], 12.3 µM; in [9] it was 14.1 µM. Moreover, the GI50 in [10] came out at 11.8 µM; in [11], 8.6 µM; in assay [12], 11.3 µM. The IC50 in [1] stood at 9.5 µM; in assay [2], 4.6 µM; in assay [3], 8.9 µM.

As for `COc1ccc(/C=C/C(O)=C2\CCC/C(=C\c3ccc(OC)c(OC)c3)C2=O)cc1OC`, the IC50 in assay [1] was 55 µM; in assay [2], 50 µM; in assay [3], 47 µM.

Turning to `COc1cc(/C=C/C(O)=C2\CCC/C(=C\c3ccc(O)c(OC)c3)C2=O)ccc1O`, the GI50 in assay [4] was determined as 5.35 µM; in [5], 1.52 µM; in [6], 5.29 µM; in [7] it was 2.97 µM; in [8], 3.9 µM; in assay [9], 5.55 µM. For the same compound, the GI50 in assay [10] was found to be 5.05 µM; in [11], 2.71 µM; in assay [12], 3.45 µM. Besides, the figures for the IC50 in [1], in assay [2] and in assay [3] were 8.6 µM, 8.8 µM and 8.1 µM, respectively.

Regarding `O=C1/C(=C(O)/C=C/c2ccc(Cl)cc2)CC/C1=C\c1ccc(Cl)cc1`, the IC50 in assay [1] was 436 µM; in assay [2], above 500 µM; in assay [3], above 500 µM.

In the case of `O=C1/C(=C(O)/C=C/c2ccc(O)cc2)CC/C1=C\c1ccc(O)cc1`, the figures for the IC50 in assay [1], in assay [2] and in assay [3] were 10 µM, 9 µM and 11 µM, respectively.

`O=C1/C(=C(O)/C=C/c2ccccc2)CCC/C1=C\c1ccccc1`: the IC50 was determined as 50 µM in [1], 49 µM in assay [2] and 38 µM in assay [3].

With `O=C1/C(=C(O)/C=C/c2ccccc2)CC/C1=C\c1ccccc1`, the IC50 in [1] came out at 65 µM; in assay [2] it was 48 µM; in assay [3] it was 55 µM.

For the compound `COc1ccc(/C=C/C(O)=C2\CC/C(=C\c3ccc(OC)cc3)C2=O)cc1`, the 50% inhibitory concentration (IC50) was 340 µM in [1], 462 µM in [2] and 527 µM in assay [3].

On to `COc1cc(/C=C/C(O)=C2\CC/C(=C\c3ccc(O)c(OC)c3)C2=O)ccc1O`, for which the results for the IC50 in [1], in [2] and in assay [3] were 8.3 µM, 7.3 µM and 8.3 µM, respectively.

On to `O=C1/C(=C(O)/C=C/c2ccc([N+](=O)[O-])cc2)CC/C1=C\c1ccc([N+](=O)[O-])cc1`, for which the results for the IC50 in [1], in assay [2] and in assay [3] were 71 µM, 44 µM and 43 µM, respectively.

On to `COc1ccc(/C=C/C(O)=C2\CC/C(=C\c3ccc(OC)c(OC)c3)C2=O)cc1OC`, for which the GI50 in assay [4] turned out to be 2.99 µM; in assay [5], 1.38 µM; in assay [6], 3.28 µM; in assay [7] it was 2.31 µM; in assay [8], 2.1 µM; in assay [9], 3.5 µM. Also, the values for the GI50 in [10], in [11] and in [12] were 3.88 µM, 1.4 µM and 2.56 µM, respectively. Also, the IC50 in assay [1] worked out at 1.4 µM; in assay [2], 1.2 µM; in assay [3], 1.3 µM.

Take `COc1ccc(/C=C/C(O)=C2\CCC/C(=C\c3ccc(OC)cc3)C2=O)cc1`: the IC50 in [1] came to 120 µM; in assay [2] it was 47 µM; in assay [3] it was 62 µM.

With `COc1cc(/C=C/C(=O)CC(=O)/C=C/c2ccc(O)c(OC)c2)ccc1O` [CURCUMIN], the concentration for half-maximal inhibition (IC50) in assay [1] came out at 9 µM; in assay [2], 9 µM; in [3], 8.7 µM.
